Measured values published in article PMC4445146 (European journal of medicinal chemistry, 2014).

Legend:
[1] = system: MDA-MB-468 breast cancer cells; assay type: cell-based, human; conditions: MDA-MB-468 cells; for decrease of Mcl-1 levels and induction of apoptosis (caspase 3 activation): 3 μM, western blot; for decrease of Mcl-1 levels and caspase 3 cleavage: concentrations as high as 10 μM (data not shown)
Bcl-xL/Bim = Bcl-xL/Bim (Homo sapiens, UniProt Q07817); assay: ELISA, disruption of Bcl-xL/Bim binding; conditions: for selectivity for Bcl-xL over Mcl-1: ratio of ELISA IC50 values; for fold more potent than 1 against Bcl-xL/Bim: ELISA IC50 relative to (±)-marinopyrrole A (1); for IC50: read-out: Bcl-xL/Bim IC50, ELISA, average ± SEM, n ≥ 3
Bcl-xL/Bim, sequence (Q07817 whole entry): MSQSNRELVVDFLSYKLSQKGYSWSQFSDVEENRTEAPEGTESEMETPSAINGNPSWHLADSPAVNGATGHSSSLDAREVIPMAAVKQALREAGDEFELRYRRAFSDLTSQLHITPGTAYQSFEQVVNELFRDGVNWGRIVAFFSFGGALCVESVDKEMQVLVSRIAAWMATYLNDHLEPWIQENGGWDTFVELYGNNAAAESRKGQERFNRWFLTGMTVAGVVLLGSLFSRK

Mcl-1/Bim = Mcl-1/Bim (Homo sapiens, UniProt Q07820); assay: ELISA, disruption of Mcl-1/Bim binding; conditions: for fold more potent than 1 against Mcl-1/Bim: ELISA IC50 relative to (±)-marinopyrrole A (1); for IC50: read-out: Mcl-1/Bim IC50, ELISA, average ± SEM, n ≥ 3
Mcl-1/Bim, sequence (Q07820 whole entry): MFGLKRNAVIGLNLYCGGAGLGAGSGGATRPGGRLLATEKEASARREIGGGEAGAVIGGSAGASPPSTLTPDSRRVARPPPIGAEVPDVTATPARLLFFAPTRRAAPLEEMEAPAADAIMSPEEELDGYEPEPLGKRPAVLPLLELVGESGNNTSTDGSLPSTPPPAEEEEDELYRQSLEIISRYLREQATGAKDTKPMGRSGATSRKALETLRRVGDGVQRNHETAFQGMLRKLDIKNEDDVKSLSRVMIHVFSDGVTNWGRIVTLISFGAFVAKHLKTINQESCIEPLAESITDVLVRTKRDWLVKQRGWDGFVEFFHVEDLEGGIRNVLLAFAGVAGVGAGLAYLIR

Row | Compound | decrease of Mcl-1 levels and induction of apoptosis (caspase 3 activation) [1] | IC50 (Mcl-1/Bim) [µM] | also measured
1 | O=C(c1ccc(-c2cn(-c3ccccc3)nn2)cc1O)c1[nH]c(Cl)c(Cl)c1-n1c(C(=O)c2ccc(-c3cn(-c4ccccc4)nn3)cc2O)cc(Cl)c1Cl [compound 40] | little activity in intact cells | – | selectivity for Bcl-xL over Mcl-1 (Bcl-xL/Bim): 2 fold
2 | Cn1c(Cl)c(Cl)c(-n2c(C(=O)c3ccccc3O)cc(Cl)c2Cl)c1C(=O)c1ccccc1O [compound 54, (4,4′,5,5′-tetrachloro-1′-methyl-1′H-[1,3′-bipyrrole]-2,2′-diyl)bis((2-hydroxyphenyl)methanone)] | – | – | selectivity for Bcl-xL over Mcl-1 (Bcl-xL/Bim): selectivity for Bcl-xL/Bim over Mcl-/Bim
3 | O=C(c1ccc(OS(=O)(=O)C(F)(F)F)cc1O)c1[nH]c(Cl)c(Cl)c1-n1c(C(=O)c2ccccc2O)cc(Cl)c1Cl [compound 28] | – | – | fold more potent than 1 against Mcl-1/Bim (Mcl-1/Bim): nine; fold more potent than 1 against Bcl-xL/Bim (Bcl-xL/Bim): eight
4 | O=C(c1ccc(SCc2ccccc2)cc1O)c1[nH]c(Cl)c(Cl)c1-n1c(C(=O)c2ccc(SCc3ccccc3)cc2O)cc(Cl)c1Cl [compound 32] | little activity in intact cells | – | –
5 | (4,4′,5,5′-Tetrachloro-1′H-1,3′-bipyrrole-2,2′-diyl)bis((2-hydroxy-4-(1-octyl-1H-1,2,3-triazol-5-yl)phenyl)methanone) [compound 42] | little activity in intact cells | 0.6 ± 0.3 | fold more potent than 1 against Mcl-1/Bim (Mcl-1/Bim): 15 fold; fold more potent than 1 against Bcl-xL/Bim (Bcl-xL/Bim): 33 fold; IC50 (Bcl-xL/Bim): 0.5 ± 0.1 µM
6 | O=C(c1ccc(O)cc1O)c1[nH]c(Cl)c(Cl)c1-n1c(C(=O)c2ccc(O)cc2O)cc(Cl)c1Cl [compound 29] | – | – | decrease of Mcl-1 levels and caspase 3 cleavage [1]: inactive at decreasing Mcl-1 levels and at inducing caspase 3 cleavage
7 | CCc1ccc(C(=O)c2[nH]c(Cl)c(Cl)c2-n2c(C(=O)c3ccc(CC)cc3O)cc(Cl)c2Cl)c(O)c1 [compound 27, (4,4′,5,5′-Tetrachloro-1′H-1,3′-bipyrrole-2,2′-diyl)bis((4-ethyl-2-hydroxyphenyl)methanone)] | – | 2.1 ± 0.5 | IC50 (Bcl-xL/Bim): 3.9 ± 1.3 µM
8 | CCOC(=O)CSc1ccc(C(=O)c2[nH]c(Cl)c(Cl)c2-n2c(C(=O)c3ccc(SCC(=O)OCC)cc3O)cc(Cl)c2Cl)c(O)c1 [compound 31] | little activity in intact cells | – | –
9 | O=C(O)Cn1cc(-c2ccc(C(=O)c3[nH]c(Cl)c(Cl)c3-n3c(C(=O)c4ccc(-c5cn(CC(=O)O)nn5)cc4O)cc(Cl)c3Cl)c(O)c2)nn1 [compound 45, 2,2′-(4,4′-((4,4′,5,5′-Tetrachloro-1′H-1,3′-bipyrrole-2,2′-dicarbonyl)bis(3-hydroxy-4,1-phenylene))bis(1H-1,2,3-triazole-4,1-diyl))diacetic acid] | – | 16.5 ± 1.9 | –
10 | O=C(c1ccccc1O)c1[nH]c(Cl)c(Cl)c1-n1c(C(=O)c2cc(Cl)ccc2O)cc(Cl)c1Cl [compound 48] | not active in intact cells | – | –
11 | Cc1cc(O)c(C(=O)c2[nH]c(Cl)c(Cl)c2-n2c(C(=O)c3cc(Cl)c(C)cc3O)cc(Cl)c2Cl)cc1Cl [compound 24, (4,4′,5,5′-Tetrachloro-1′H-1,3′-bipyrrole-2,2′-diyl)bis((5-chloro-2-hydroxy-4-methylphenyl)methanone)] | – | 2.6 ± 0.6 | IC50 (Bcl-xL/Bim): 2.5 ± 0.4 µM
12 | O=C(c1ccccc1O)c1[nH]c(Cl)c(Cl)c1-n1c(C(=O)c2c(O)cccc2F)cc(Cl)c1Cl [compound 52] | not active in intact cells | – | –
13 | CCOC(=O)Cn1cc(-c2ccc(C(=O)c3[nH]c(Cl)c(Cl)c3-n3c(C(=O)c4ccc(-c5cn(CC(=O)OCC)nn5)cc4O)cc(Cl)c3Cl)c(O)c2)nn1 [compound 43, Diethyl 2,2′-(4,4′-((4,4′,5,5′-tetrachloro-1′H-1,3′-bipyrrole-2,2′-dicarbonyl)bis(3-hydroxy-4,1-phenylene))bis(1H-1,2,3-triazole-4,1-diyl))diacetate] | – | 18.4 ± 0.3 | –
14 | CCOC(=O)Cn1cc(-c2cc(O)c(C(=O)c3[nH]c(Cl)c(Cl)c3-n3c(C(=O)c4cc(Cl)c(-c5cn(CC(=O)OCC)nn5)cc4O)cc(Cl)c3Cl)cc2Cl)nn1 [compound 36, Diethyl 2,2′-(4,4′-((4,4′,5,5′-tetrachloro-1′H-1,3′-bipyrrole-2,2′-dicarbonyl)bis(2-chloro-5-hydroxy-4,1-phenylene))bis(1H-1,2,3-triazole-4,1-diyl))diacetate] | – | 7.8 ± 1.5 | –
15 | CC(C)(C)OC(=O)Cn1cc(-c2cc(O)c(C(=O)c3[nH]c(Cl)c(Cl)c3-n3c(C(=O)c4cc(Cl)c(-c5cn(CC(=O)OC(C)(C)C)nn5)cc4O)cc(Cl)c3Cl)cc2Cl)nn1 [compound 37, Di-tert-butyl 2,2′-(4,4′-((4,4′,5,5′-tetrachloro-1′H-1,3′-bipyrrole-2,2′-dicarbonyl)bis(2-chloro-5-hydroxy-4,1-phenylene))bis(1H-1,2,3-triazole-4,1-diyl))diacetate] | little activity in intact cells | – | –
16 | O=C(c1cc(Cl)c(O)cc1O)c1[nH]c(Cl)c(Cl)c1-n1c(C(=O)c2cc(Cl)c(O)cc2O)cc(Cl)c1Cl [compound 30] | – | – | decrease of Mcl-1 levels and caspase 3 cleavage [1]: inactive at decreasing Mcl-1 levels and at inducing caspase 3 cleavage
17 | COc1ccc(CSc2ccc(C(=O)c3[nH]c(Cl)c(Cl)c3-n3c(C(=O)c4ccc(SCc5ccc(OC)cc5)cc4O)cc(Cl)c3Cl)c(O)c2)cc1 [compound 33] | little activity in intact cells | – | –
18 | O=C(O)Cn1cc(-c2cc(O)c(C(=O)c3[nH]c(Cl)c(Cl)c3-n3c(C(=O)c4cc(Cl)c(-c5cn(CC(=O)O)nn5)cc4O)cc(Cl)c3Cl)cc2Cl)nn1 [compound 38, 2,2′-(4,4′-((4,4′,5,5′-Tetrachloro-1′H-1,3′-bipyrrole-2,2′-dicarbonyl)bis(2-chloro-5-hydroxy-4,1-phenylene))bis(1H-1,2,3-triazole-4,1-diyl))diacetic acid] | – | 5.2 ± 0.8 | decrease of Mcl-1 levels and caspase 3 cleavage [1]: inactive at decreasing Mcl-1 levels and at inducing caspase 3 cleavage
19 | C#Cc1ccc(C(=O)c2[nH]c(Cl)c(Cl)c2-n2c(C(=O)c3ccc(C#C)cc3O)cc(Cl)c2Cl)c(O)c1 [compound 25, (4,4′,5,5′-Tetrachloro-1′H-1,3′-bipyrrole-2,2′-diyl)bis((4-ethynyl-2-hydroxyphenyl)methanone)] | – | 3.9 ± 0.2 | IC50 (Bcl-xL/Bim): 5.6 ± 0.5 µM
